In US10392383B2, “3-(1H-benzo[d]imidazol-2-yl)-1H-pyrazolo[4,3-b]pyridines and therapeutic uses thereof” (Samumed, LLC, priority 2015, dated 2019) one finds inhibition and EC50 data, which are given here for 11 molecules.

Format in all cases: cell-based
Test [1] relates to Wnt activity (Sp5-Luc reporter, Wnt-responsive promoter) in SW480 colon carcinoma cells. As to the kind of experiment: Wnt activity screening assay: Sp5-Luc reporter gene assay in SW480 cells. As to conditions: Homo sapiens; for inhibition at 10 µM: read-out: percent inhibition at 10 μM (given for EC50 of >10 μM); for EC50: overnight incubation, 10-point curve starting from 10 μM. The text has this:
The screening assay for Wnt activity is described as follows. Reporter cell lines can be generated by stably transducing cancer cell lines (e.g., colon cancer) or primary cells (e.g., IEC-6 intestinal cells) with a lentiviral construct that includes a Wnt-responsive promoter driving expression of the firefly luciferase gene.
SW480 colon carcinoma cells were transduced with a lentiviral vector expressing luciferase with a human Sp5 promoter consisting of a sequence of eight TCF/LEF binding sites. SW480 cells stably expressing the Sp5-Luc reporter gene and a hygromycin resistance gene were selected by treatment with 150 μg/mL of hygromycin for 7 days. These stably transduced SW480 cells were expanded in cell culture and used for all further screening activities. Each compound was dissolved in DMSO as a 10 mM stock and used to prepare compound source plates. Serial dilution (1:3, 10-point dose-response curves starting from 10 μM) and compound transfer was performed using the ECHO 550 (Labcyte, Sunnyvale, Calif.) into 384-well white solid bottom assay plates (Greiner Bio-One) with appropriate DMSO backfill for a final DMSO concentration of 0.1%. For Sp5-Luc reporter gene assays, the cells were plated at 4,000 cells/well in 384-well plates with medium containing 1% fetal bovine serum and incubated overnight at 37° C. and 5% CO2. Following incubation, 20 μl of BrightGlo luminescence reagent (Promega) was added to each well of the 384-well assay plates. The plates were placed on an orbital shaker for 2 min and then luminescence was quantified using the Envision (Perkin Elmer) plate reader. Readings were normalized to DMSO only treated cells, and normalized activities were utilized for EC50 calculations using the dose-response log (inhibitor) vs. response-variable slope (four parameters) nonlinear regression feature available in GraphPad Prism 5.0 (or Dotmatics). For EC50 of >10 μM, the percent inhibition at 10 μM is provided.
Background: In a reporter assay the amount or activity of a reporter protein is the signal.

Another test relates to SW480 colon cancer cells. As to the kind of experiment: Cell viability assay (CellTiter-Blue) in SW480 cells. As to conditions: Homo sapiens, 96 h, four days; for inhibition at 10 µM: read-out: percent inhibition at 10 μM (given for EC50 of >10 μM); for EC50: CellTiter-Blue, 10 μM to 0.0045 μM. The protocol:
Representative compounds were screened using the following assay procedure to assess the effect on cell viability as described below.
Each compound was dissolved in DMSO as a 10 mM stock and used to prepare compound source plates. Serial dilution (1:3, 8-point dose-response curves from 10 μM to 0.0045 μM) and compound transfer was performed using the ECHO 550 (Labcyte, Sunnyvale, Calif.) into 96-well clear bottom, black-walled plates (Corning-Costar).
Approximately 2×10^3 SW480 colon cancer cells were seeded into each well and allowed to incubate in the presence or absence of compound for four days at 37° C./5% CO2. Eight replicates of DMSO-treated cells served as controls and cells treated with compound were performed in duplicate.
After incubation, 20 μL of CellTiter-Blue (Promega) was added to each well allowed to incubate for approximately 3 hours. This reagent was a buffered solution which contains resazurin, metabolically active cells were able to reduce rezarurin (blue) into resorufin (pink) which was highly fluorescent. This measured fluorescence was used as a readout for cell viability.
After incubation, the plates were read at Ex 560 nm Em 590 nm (Cytation 3, BioTek). Dose-response curves were generated and EC50 concentration values were calculated using non-linear regression curve fit in the GraphPad Prism (San Diego, Calif.) or Dotmatics' Studies Software (Bishops Stortford, UK). For EC50 of >10 μM, the percent inhibition at 10 μM is provided.
Background: Resazurin is reduced to fluorescent resorufin, in cell work by metabolically active cells.

In test [2] the test system is primary human fibroblasts derived from IPF patients (LL29 cells) treated with TGF-β1. As to the kind of experiment: Inhibition of the fibrotic process: αSMA staining in TGF-β1-treated LL29 fibroblasts. As to conditions: Fibroblast; for inhibition at 10 µM: LL29 fibroblasts treated with TGF-β1, Table 4, read-out: percent inhibition at 10 μM (given in parentheses for EC50 >10 μM); for EC50: 96 h, LL29 fibroblasts treated with TGF-β1 (20 ng/mL), 4 days, Table 4. The text has this: Representative compounds were screened using primary human fibroblasts (derived from IPF patients) treated with TGF-β1 to determine their ability to inhibit the fibrotic process.
Human Fibroblast Cell Culture: Primary human fibroblasts derived from IPF patients (LL29 cells) [^1Xiaoqiu Liu, et. al., “Fibrotic Lung Fibroblasts Show Blunted Inhibition by cAMP Due to Deficient cAMP Response Element-Binding Protein Phosphorylation”, Journal of Pharmacology and Experimental Therapeutics (2005), 315(2), 678-687; ^2Watts, K. L., et. al., “RhoA signaling modulates cyclin D1 expression in human lung fibroblasts; implications for idiopathic pulmonary fibrosis”, Respiratory Research (2006), 7(1), 88] were obtained from American Type Culture Collection (ATCC) and expanded in F12 medium supplemented with 15% Fetal Bovine Serum and Penicillin/Streptomycin.
Compound Screening: Each compound was dissolved in DMSO as a 10 mM stock and used to prepare compound source plates. Serial dilution (1:2, 11-point dose-response curves from 10 μM to […]) and compound transfer was performed using the ECHO 550 (Labcyte, Sunnyvale, Calif.) into 384-well clear bottom assay plates (Greiner Bio-One) with appropriate DMSO backfill for a final DMSO concentration of 0.1%. LL29 cells are plated at 1,500 cells/well in 80 μL/well F12 medium supplemented with 1% Fetal Bovine Serum. One hour after addition of the cells, TGF-β1 (Peprotech; 20 ng/mL) was added to the plates to induce fibrosis (ref. 1 and 2 above). Wells treated with TGF-β1 and containing DMSO were used as controls. Cells were incubated at 37° C. and 5% CO2 for 4 days. Following incubation for 4 days, SYTOX green nucleic acid stain (Life Technologies [Thermo Fisher Scientific]) was added to the wells at a final concentration of 1 μM and incubated at room temperature for 30 min. Cells were then fixed using 4% formaldehyde (Electron Microscopy Sciences), washed 3 times with PBS followed by blocking and permeabilization using 3% Bovine Serum Albumin (BSA; Sigma) and 0.3% Triton X-100 (Sigma) in PBS. Cells were then stained with antibody specific to α-smooth muscle actin (αSMA; Abcam) (ref. 1 and 2 above) in 3% Bovine Serum Albumin (BSA; Sigma) and 0.3% Triton X-100 (Sigma) in PBS, and incubated overnight at 4° C. Cells were then washed 3 times with PBS, followed by incubation with Alexa Flor-647 conjugated secondary antibody (Life Technologies [Thermo Fisher Scientific]) and DAPI at room temperature for 1 hour. Cells were then washed 3 times with PBS and plates were sealed for imaging. αSMA staining was imaged by excitation at 630 nm and emission at 665 nm and quantified using the Compartmental Analysis program on the CellInsight CX5 (Thermo Scientific). Dead or apoptotic cells were excluded from analysis based on positive SYTOX green staining. % of total cells positive for αSMA were counted in each well and normalized to the average of 11 wells treated with TGF-β1 on the same plate using Dotmatics' Studies Software. The normalized averages (fold change over untreated) of 3 replicate wells for each compound concentration were used to create dose-responses curves and EC50 values were calculated using non-linear regression curve fit in the Dotmatics' Studies Software. For EC50 of >10 μM, the percent inhibition at 10 μM is provided.

One may read the inhibition as the share of the control response that was lost under treatment. For orientation: EC50 means the concentration that produces a half-maximal response. High values mean a need for much substance, low ones an effect from little substance. Consider `c1ccc2[nH]c(-c3n[nH]c4ccc(-c5cn[nH]c5)nc34)nc2c1` [Compound 651, 3-(1H-Benzo[d]imidazol-2-yl)-5-(1H-pyrazol-4-yl)-1H-pyrazolo[4,3-b]pyridine], for which the inhibition at 10 µM in test [1] worked out at 40.2%; in the test with SW480 colon cancer cells it was 33.9%; in test [2] it was 0%. Moreover, the EC50 (in test [1]; in the test with SW480 colon cancer cells; in test [2]) was > 10 µM throughout.
Regarding `CN1CCN(c2cccc3[nH]c(-c4n[nH]c5ccc(-c6cncc(N)c6)nc45)nc23)CC1` [Compound 227, 5-(3-(4-(4-Methylpiperazin-1-yl)-1H-benzo[d]imidazol-2-yl)-1H-pyrazolo [4,3-b]pyridin-5-yl)pyridin-3-amine], the values for the inhibition at 10 µM (in test [1]; in the test on SW480 colon cancer cells; in test [2]) were 48.8%, 18.4% and 32.1%, respectively. Moreover, the EC50 (in test [1]; in the test with SW480 colon cancer cells; in test [2]) was > 10 µM each time.
Consider `CN(C)CCNc1cc(F)cc(-c2cccc3[nH]c(-c4n[nH]c5ccc(-c6cncc(OCCN7CCCC7)c6)nc45)nc23)c1` [Compound 786, N^1-(3-Fluoro-5-(2-(5-(5-(2-(pyrrolidin-1-yl)ethoxy)pyridin-3-yl)-1H-pyrazolo[4,3-b]pyridin-3-yl)-1H-benzo[d]imidazol-4-yl)phenyl)-N^2,N^2-dimethylethane-1,2-diamine], for which the figures for the 50% effective concentration (EC50) (in test [1]; with SW480 colon cancer cells; in test [2]) were 3.11 µM, 3.56 µM and 1.77 µM, respectively.
In the case of `c1cc(-c2ccncc2)c2nc(-c3n[nH]c4ccc(-c5cnccn5)nc34)[nH]c2c1` [Compound 584, 5-(Pyrazin-2-yl)-3-(4-(pyridin-4-yl)-1H-benzo[d]imidazol-2-yl)-1H-pyrazolo[4,3-b]pyridine], the inhibition at 10 µM in test [1] was 7.4%; in the test on SW480 colon cancer cells, 9.6%; in test [2], 10%. The EC50 (in test [1]; in the test on SW480 colon cancer cells; in test [2]) was > 10 µM each time.
For the molecule `CN(C)CC(=O)Nc1cncc(-c2ccc3[nH]nc(-c4nc5c(-c6cccc(F)c6)cccc5[nH]4)c3n2)c1` [Compound 969, 2-(Dimethylamino)-N-(5-(3-(4-(3-fluorophenyl)-1H-benzo[d]imidazol-2-yl)-1H-pyrazolo[4,3-b]pyridin-5-yl)pyridin-3-yl)acetamide], the results for the EC50 (in test [1]; with SW480 colon cancer cells; in test [2]) were 3.99 µM, > 10 µM and 2.07 µM, respectively. For the same molecule, the inhibition at 10 µM in the test with SW480 colon cancer cells worked out at 25.3%.
For `CCC(=O)Nc1cncc(-c2ccc3[nH]nc(-c4nc5c(N6CCCCC6)cccc5[nH]4)c3n2)c1` [Compound 169, N-(5-(3-(4-(Piperidin-1-yl)-1H-benzo[d]imidazol-2-yl)-1H-pyrazolo[4,3-b]pyridin-5-yl)pyridin-3-yl)propionamide] the same measures were 3.79 µM, > 10 µM, 0.158 µM and 41.4%.
Take `Cc1cn(-c2cccc3[nH]c(-c4n[nH]c5ccc(C6=CCNCC6)nc45)nc23)cn1` [Compound 618, 3-(4-(4-Methyl-1H-imidazol-1-yl)-1H-benzo[d]imidazol-2-yl)-5-(1,2,3,6-tetrahydropyridin-4-yl)-1H-pyrazolo[4,3-b]pyridine]: the inhibition at 10 µM in test [1] turned out to be 1.2%; with SW480 colon cancer cells, 7.4%; in test [2] it was 7.7%. In addition, the EC50 (in test [1]; in the test with SW480 colon cancer cells; in test [2]) was > 10 µM each time.
Regarding `COc1cccc(-c2cccc3[nH]c(-c4n[nH]c5ccc(-c6cncc(NC(=O)CC(C)(C)C)c6)nc45)nc23)c1` [Compound 1006, N-(5-(3-(4-(3-methoxyphenyl)-1H-benzo[d]imidazol-2-yl)-1H-pyrazolo[4,3-b]pyridin-5-yl)pyridin-3-yl)-3,3-dimethylbutanamide], the values for the EC50 (in test [1]; with SW480 colon cancer cells; in test [2]) were 2.41 µM, 5.91 µM and > 10 µM, respectively. Moreover, the inhibition at 10 µM in test [2] came to 32.2%.
Regarding `CN(C)CCNc1cc(F)cc(-c2cccc3[nH]c(-c4n[nH]c5ccc(-c6cnccn6)nc45)nc23)c1` [Compound 792, N^1-(3-Fluoro-5-(2-(5-(pyrazin-2-yl)-1H-pyrazolo[4,3-b]pyridin-3-yl)-1H-benzo[d]imidazol-4-yl)phenyl)-N^2,N^2-dimethylethane-1,2-diamine], the figures for the EC50 (in test [1]; in the test on SW480 colon cancer cells; in test [2]) were 3.96 µM, 4.23 µM and 1.9 µM, respectively.
Take `Cn1cc(-c2ccc3[nH]nc(-c4nc5c(-c6cccs6)cccc5[nH]4)c3n2)cn1` [Compound 700, 5-(1-Methyl-1H-pyrazol-4-yl)-3-(4-(thiophen-2-yl)-1H-benzo[d]imidazol-2-yl)-1H-pyrazolo[4,3-b]pyridine]: the inhibition at 10 µM in test [1] came out at 37.8%; in the test on SW480 colon cancer cells, 27.3%. Further, the EC50 in test [1] is > 10 µM; with SW480 colon cancer cells, > 10 µM; in test [2] it was 0.391 µM.
`c1cc(-c2ccncc2)c2nc(-c3n[nH]c4ccc(-c5cncc(OC6CCNCC6)c5)nc34)[nH]c2c1` [Compound 576, 5-(5-(Piperidin-4-yloxy)pyridin-3-yl)-3-(4-(pyridin-4-yl)-1H-benzo[d]imidazol-2-yl)-1H-pyrazolo[4,3-b]pyridine]: the inhibition at 10 µM in test [1] came to 25.7%; with SW480 colon cancer cells, 9%; in test [2], 9.2%. The EC50 (in test [1]; in the test with SW480 colon cancer cells; in test [2]) was > 10 µM throughout.
